This is an account of results in patent publication US20090018151A1, “Topical Treatment of Peripheral diabetic complications” (priority 2007, published 2009).

The assay has as its system diabetic neuropathy. The experiment in a line: action of minoxidil on diabetic neuropathy (one foot minoxidil, other foot placebo, blinded). It counts as in vivo, human. The source says: Example: action of minoxidil on diabetic neuropathy. A subject with a history of type II diabetes and painful symmetric diabetic neuropathy with stable blood sugars for at least 4 weeks prior to beginning therapy had minoxidil applied to one foot and placebo applied to the other foot in a blinded fashion. […] They had not taken any other pain medication 3 months prior to initiating treatment and during treatment. They also had significant skin dryness. Within 2 weeks the subject reported a VAS score improvement of 3 on the foot with the minoxidil treatment.

On to `Nc1cc(N2CCCCC2)nc(N)[n+]1[O-]` [minoxidil, 6-(1-piperidinyl)pyrimidine-2,4-diamine 3-oxide], for which the Re-growth of hair result (foot treated with minoxidil vs placebo foot, subject had hair loss on the feet up to mid-calf) is “Re-growth of hair was found on the side treated with minoxidil only”. Moreover, under “foot treated with minoxidil vs placebo foot, subject had significant skin dryness”, the “Improvement of the dryness of the skin” value is given as “Improvement of the dryness of the skin was also noted on the side treated with minoxidil only”. The same compound had a VAS score improvement (person, type II diabetes, painful symmetric diabetic neuropathy, minoxidil applied to one foot, within 2 weeks) of 3.
